Experimental data taken from patent US20250387382A1, “METHODS OF TREATING ESSENTIAL TREMOR” (Praxis Precision Medicines, Inc., priority 2023, published 2025).

What was measured:
Format in all cases: in vivo, human
[1] = test system: participants with moderate to severe ET; assay: Phase 2 trial, double-blind part: safety/tolerability
Experimental: (§1) This trial is a Phase 2 trial to evaluate the efficacy and safety/tolerability of titration of Compound 1 to 60 mg or 100 mg compared to placebo in participants with moderate to severe ET. Severity of ET in this study was defined by eligibility criteria on TETRAS-ADL, CGI-S, and TETRAS-PS items 6 and 7. This dose range finding trial is comprised of three parts. The first part was randomized, double-blinded (DB), and placebo-controlled, the second part was an optional extension that consisted of an Extension DB Lead-in Period followed by an Extension Open-label (OL) Period. Further, there was also a third part available for completers of the Day 99 visit, which third part was comprised of a blinded cross-over period (referred to as cross-over period) after re-randomization for 6 weeks, after which all completers would receive formula (I) in an open-label fashion. In part one of the trial, eligible participants were randomized to 1 of 2 dose levels of Compound 1 (60 mg or 100 mg) or to placebo. The primary objective of this trial was to evaluate the efficacy of Compound 1 compared to placebo after 56 days (end of randomized, DB, placebo-controlled part) of dosing in participants with ET with moderate to severe tremor utilizing modified ADL as the primary efficacy endpoint. Secondary and exploratory objectives include further efficacy evaluations, an evaluation of the safety and tolerability, and determination of plasma concentrations of formula (I) and its metabolites. The design of the Phase 2 trial is illustrated in FIG. 1.
Throughout the Intervention Period (Day 1 to Day 56), participants who chose to stop dosing or were required to stop dosing entered the Safety Follow-up Period. All participants were asked to return to the clinic for the Safety Follow-up Visit 14 days after their last dose of study drug except for those that chose to enroll in the optional Extension part of the trial (see below).
On Days 7, 21, 35, and 54 participants received a telephone call from site staff to ask about AEs and changes in concomitant medications.

[2] = test system: participants with moderate to severe ET; assay: Phase 2 trial, randomized double-blind placebo-controlled part: efficacy (TETRAS mADL, ADL, mADL11, PGI-C, CGI-S)
Text: as §1, with “Severity” for “This trial is a Phase 2 trial to evaluate the efficacy and safety/tolerability of titration of Compound 1 to 60 mg or 100 mg compared to placebo in participants with moderate to severe ET. Severity”, “In part one of the trial, eligible participants were randomized to 1 of 2 dose levels of Compound 1 (60 mg or 100 mg) or to placebo.” left out
Participants who continued to meet all clinical trial entry criteria on Day 1 were randomized to receive DB treatment with Compound 1 or placebo every morning (QAM) from Day 1 through Day 56. Participants were randomized to 1 of 2 fixed-dose regimens or placebo in a 1:1:1 ratio. No dosage adjustments were allowed.
On Days 14, 28, 42, and 56, participants returned to the clinic for PK sampling, dosing, efficacy, and safety assessments. Key efficacy assessments at these visits included TETRAS-PS, TETRAS ADL, CGI-S, CGI-I, and PGI C.
Fixed titration regimens were used (Table 1). Participants were not allowed to adjust the number of tablets per day.
Selected items from the TETRAS-ADL and TETRAS-PS (or TETRAS-CUL, as appropriate) were scored in a modified manner and combined to create a TETRAS modified total score. Items 1-11 in the TETRAS ADL subscale and items 6 and 7 of the TETRAS-PS were used, with scoring adjusted so that response options 0 and 1 were combined into a single response of “0=Normal.” Further, scores of 2, 3, and 4 were adjusted to 1, 2, and 3, respectively. The TETRAS modified total score were the sum of these adjusted TETRAS-ADL and TETRAS PS items, having a possible range of 0 to 42, where larger values represent increased direct tremor impact to activities of daily living. The items that are included in the TETRAS-modified total score are illustrated in FIG. 2.
The primary efficacy measure in this clinical trial was change from baseline in mADL at day 56. Ulixacaltamide effect on individual mADL items was determined by calculating the fold-change adjusted by placebo change at Day 56 in mADL for individual mADL items. The secondary efficacy measures included change in Clinical Global Impression-Severity (CGI-S) score, Patient Global Impression-Change (PGI-C) score, TETRAS-ADL total score, TETRAS-UL score, TETRAS-CUL score and TETRAS-PS score.

[3] = Phase 1 trial: effect of a high-fat, high-calorie meal on pharmacokinetics; conditions: 120 mg dose, steady state, healthy adult participants
Experimental: The effect of a high-fat, high-calorie meal on the pharmacokinetics of Compound I was evaluated in healthy participants who had previously received Compound 1 under fasted conditions in a Phase 1 trial. The effect of a high-fat, high-calorie meal on the PK of Compound 1 was evaluated at the 120 mg dose level after healthy adult participants had titrated to reach steady-state exposure. Following administration of 120 mg dose in the fed state or fasted state, the maximum plasma drug concentration (Cmax) and AUC, values were similar. Based on this analysis, Compound 1 may be administered without regard to food.

[4] = test system: healthy participants and patients with ET; assay: Safety across the clinical development program

With CC(C)(C)NC(=O)CN1CCC(CNC(=O)c2cc(F)cc(Cl)c2)CC1 [Compound 1, N-((1-(2-(tert-butylamino)-2-oxoethyl)piperidin-4-yl)methyl)-3-chloro-5-fluorobenzamide] the “Safety profile, 60 mg vs 100 mg groups” value ([1]; in vivo) was “no significant difference in the safety profile”, the “Severity of the majority of TEAEs” value ([1]; in vivo) was “mild-moderate” and the “Proportion of subjects who discontinued” value ([1]; placebo 11%) was 17%. For the same compound, the Tolerability ([1]; titration to 60 mg or 100 mg, 56 days) was “well tolerated”, the “mADL11 treatment effect relative to placebo” value ([2]; Day 14, participants without intention tremor) was 1.03 points and the “LSM mADL11 change from baseline, treatment effect relative to placebo” value ([2]; Day 28) was 1.44. For the same compound, the “TETRAS PS items (dominant hand handwriting, left and right hand spirals), improvement vs placebo” value ([2]; Day 56) was “less improvement than those receiving placebo”, the “mADL11 LSM treatment difference vs placebo” value ([2]; after 56 days, 95% CI −3.565, −0.066, nominal p <0.05) was −1.82 and the “mADL and mADL11 scores vs. placebo at each scored timepoint” value ([2]; after day 14, FIG. 15) was “improvement”. The “Magnitude of benefit on mADL11 vs placebo, 60 mg vs 100 mg groups” value ([2]; change from baseline versus placebo) was “largely similar”, the “Modified ADL (mADL) scores in the Phase 2 trials” value ([2]; daily doses ranging from 20 to 120 mg for up to 56 days) was “reduced modified ADL (mADL) scores” and the “mADL scores, patients showing improvement vs placebo” value ([2]; day 56, FIG. 9) was “more patients taking ulixacaltamide showed improvements”. For the same compound, the “ADL score, average reduction compared to baseline” value ([2]; day 56, n=78) was 3.6 points, the “ADL scored items with consistent effect relative to placebo” value ([2]; individual items, Day 56) was 8 of 11 and the “Patients improved on CGI-S scale” value ([2]; mITT) was 42%. The “Patients improved on PGI-C scale” value ([2]; mITT) was 47%, the “mADL-scored items vs baseline in ET patients who do not have intention tremor” value ([2]; mITT excluding intention tremor, FIGS. 18 and 19) was “larger improvement” and the “Placebo-adjusted mADL excluding PS, 60 mg vs 100 mg regimens” value ([2]; mITT patients without intention tremor, FIG. 20) was “consistent effect observed across both tested dosing regimens”. The “mADL LS mean difference vs. placebo” value ([2]; mITT, Day 56, p=0.126) was 1.57, the “Modified ADL score, mean decrease” value ([2]; n=78, placebo 0.88 points) was 2.69 points and the “Patients achieving at least a 3-point improvement in mADL11” value ([2]; patients on propranolol and ulixacaltamide, 25% for propranolol and placebo) was 48%. The “mADL excluding PS items, LS mean difference vs. placebo” value ([2]; post hoc, Day 56, mITT, p=0.042) was 1.81, the “Treated participants with at least a 2 point improvement in total score” value ([2]; post-hoc responder analysis, 0.5 SD threshold, mITT) was “greater than 50%” and the “Treated subjects with at least a 4 point improvement in total score” value ([2]; post-hoc responder analysis, 1 SD threshold, mITT) was “roughly 40%”. The “Response rates vs placebo for mADL and mADL excluding PS items” value ([2]; post-hoc responder analysis, MCID distribution method, mITT) was “greater response rates”, the “Change in TETRAS-ADL, LS mean difference vs. placebo” value ([2]; secondary endpoint, p=0.026) was 2.53 and the “AUC, fed state vs fasted state” value [3] was “similar”. The “Cmax, fed state vs fasted state” value [3] was “similar”, the “Deaths or SAEs considered related to study drug” value ([4]; human, in vivo) was “No deaths or serious adverse events (SAEs)” and the “Suicide attempts or pregnancies reported” value ([4]; human, in vivo) was “no suicide attempts or pregnancies”. For the same compound, the Safety profile ([4]; modified release formulation, titration, 5 to 120 mg for up to 129 days) was “favorable safety profile” and the Tolerability ([4]; up to 129-days of daily administration, 5 to 120 mg, titration schedule) was “generally well tolerated”.
